Values of other authors as cited in US11701338B2, “Use of gTso thal in manufacturing medicament for promotion of MS-275 to cross blood-brain barrier” (Northwest Institute of Plateau Biology, Chinese Academy of …, priority 2020, dated 2023).

Details: after oral or intravenous administration

**Q.** With `Nc1ccccc1NC(=O)c1ccc(CNC(=O)OCc2cccnc2)cc1` [MS-275] as the compound, how does the “share of the dosage of MS-275 that crosses the BBB into the brain” value read?
**A.** around 15%
